Patent publication US7538131B2, “2-{-3-′2-(phenyl)-oxazol-4-ylmethoxymethyl-cyclohexylmethoxy}-propionic acid derivatives useful as peroxisome proliferator-activated receptor (PPAR) ligands for the treatment of hyperlipidemia and diabetes” (Sanofi-Aventis Deutschland GmbH, priority 2004, dated 2009)

Key:
human PPARalpha = target: T1, human PPARalpha (Homo sapiens, UniProt Q07869); test: Cellular PPARalpha assay (stably transfected HEK luciferase reporter cell line); type: cell-based; conditions: GR-GAL4-humanPPARalpha-LBD, 24 h
T1 construct: human PPARalpha receptor (amino acids S167-Y468); expressed in transfected cells; host or cells: HEK cells (stably transfected, pcDNA3, CMV promoter)
T1 sequence (Q07869 167-468): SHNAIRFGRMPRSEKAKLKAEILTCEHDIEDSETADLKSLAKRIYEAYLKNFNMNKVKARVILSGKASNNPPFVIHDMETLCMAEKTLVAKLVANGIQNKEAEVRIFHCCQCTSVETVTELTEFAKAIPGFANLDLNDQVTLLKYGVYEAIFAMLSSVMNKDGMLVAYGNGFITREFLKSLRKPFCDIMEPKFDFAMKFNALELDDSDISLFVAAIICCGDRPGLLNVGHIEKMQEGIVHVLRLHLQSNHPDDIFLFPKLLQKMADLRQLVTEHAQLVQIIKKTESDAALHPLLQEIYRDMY
Method: 1) Determination of EC50 Values of PPAR Agonists in the Cellular PPARalpha Assay
The activity of the novel compounds of the present invention was tested as follows The potency of substances which bind to human PPARalpha and activate it in an agonistic manner is analyzed using a stably transfected HEK cell line (HEK=human embryo kidney) which is referred to here as PPARalpha reporter cell line. It contained two genetic elements, a luciferase reporter element (pdeltaM-GAL4-Luc-Zeo) and a PPARalpha fusion protein (GR-GAL4-humanPPARalpha-LBD) which mediates expression of the luciferase reporter element depending on a PPARalpha ligand. The stably and constitutively expressed fusion protein GR-GAL4-humanPPARalpha-LBD binds in the cell nucleus of the PPARalpha reporter cell line via the GAL4 protein portion to the GAL4 DNA binding motifs 5′-upstream of the luciferase reporter element which was stably integrated in the genome of the cell line. There is only little expression of the luciferase reporter gene without addition of a PPARalpha ligand if fatty acid-depleted fetal calf serum (cs-FCS) is used in the assay. PPARalpha ligands bind and activate the PPARalpha fusion protein and thereby bring about expression of the luciferase reporter gene. The luciferase which is formed can be detected by means of chemiluminescence via an appropriate substrate.
The PPARalpha reporter cell line was prepared in two steps. Firstly, the luciferase reporter element was constructed and stably transfected into HEK cells. For this purpose, five binding sites of the yeast transcription factor GAL4 (in each case 5′-CGGAGTACTGTCCTCCGAG-3′) were cloned in 5′-upstream of a 68 bp-long minimal MMTV promoter (Genbank Accession #V01175). The minimal MMTV promoter section contains a CCAAT box and a TATA element in order to enable efficient transcription by RNA polymerase II. The cloning and sequencing of the GAL4-MMTV construct took place in analogy to the description of Sambrook J. et. al. (Molecular Cloning, Cold Spring Harbor Laboratory Press, 1989). Which is hereby incorporated by reference herein.
The complete Photinus pyralis luciferase gene (Genbank Accession #M15077) was cloned in 3′-downstream of the GAL4-MMTV element. After sequencing, the luciferase reporter element consisting of five GAL4 binding sites, MMTV promoter and luciferase gene was subcloned into a plasmid which confers zeozin resistance in order to obtain the plasmid pdeltaM-GAL4-Luc-Zeo. This vector was transfected into HEK cells in accordance with the statements in Ausubel, F.M. et al. (Current Protocols in Molecular Biology, Vol. 1-3, John Wiley & Sons, Inc., 1995).
In a second step, the PPARalpha fusion protein (GR-GAL4-humanPPARalpha-LBD) was introduced into the stable cell clone described. For this purpose, initially the cDNA coding for the N-terminal 76 amino acids of the glucocorticoid receptor (Genbank Accession # P04150) was linked to the cDNA section coding for amino acids 1-147 of the yeast transcription factor GAL4 (Genbank Accession #P04386). The cDNA of the ligand-binding domain of the human PPARalpha receptor (amino acids S167-Y468; Genbank Accession #S74349) was cloned in at the 3′ end of this GR-GAL4 construct. The fusion construct prepared in this way (GR-GAL4-humanPPARalpha-LBD) was subcloned into the plasmid pcDNA3 (from Invitrogen) in order to enable constitutive expression therein by the cytomegalovirus promoter. This plasmid was linearized with a restriction endonuclease and stably transfected into the previously described cell clone containing the luciferase reporter element. The finished PPARalpha reporter cell line which contains a luciferase reporter element and constitutively expresses the PPARalpha fusion protein (GR-GAL4-humanPPARalpha-LBD) was isolated by selection with zeozin (0.5 mg/ml) and G418 (0.5 mg/ml).
The activity of PPARalpha agonists was determined in a 3-day assay which is described below: […]

human PPARgamma = target: T2, human PPARgamma (Homo sapiens, UniProt P37231); test: Cellular PPARgamma assay (transiently transfected HEK cells, luciferase reporter); type: cell-based; conditions: GAL4-humanPPARgammaLBD, firefly/Renilla luciferase ratio, 48 h
T2 construct: human PPARgamma receptor (amino acids 1152-Y475); expressed in transfected cells; host or cells: HEK cells (transiently transfected, pcDNA3-GAL4-humanPPARgammaLBD)
T2 sequence (P37231 182-477 isoform P37231-2 limits assumed): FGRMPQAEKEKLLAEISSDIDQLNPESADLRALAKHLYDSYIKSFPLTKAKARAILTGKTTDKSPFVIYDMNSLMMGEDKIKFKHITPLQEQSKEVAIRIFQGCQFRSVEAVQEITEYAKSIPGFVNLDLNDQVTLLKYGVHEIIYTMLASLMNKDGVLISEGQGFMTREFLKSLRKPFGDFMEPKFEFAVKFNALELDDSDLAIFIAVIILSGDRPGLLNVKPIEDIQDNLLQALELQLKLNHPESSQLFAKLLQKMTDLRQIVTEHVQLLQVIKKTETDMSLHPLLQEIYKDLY
Description: 4) Determination of EC50 Values of PPAR Agonists in the Cellular PPARgamma Assay
A transient transfection system is employed to determine the cellular PPARgamma activity of PPAR agonists. It is based on the use of a luciferase reporter plasmid (pGL3basic-5xGAL4-TK) and of a PPARgamma expression plasmid (pcDNA3-GAL4-humanPPARgammaLBD). Both plasmids are transiently transfected into human embryonic kidney cells (HEK cells). There is then expression in these cells of the fusion protein GAL4-humanPPARgammaLBD which binds to the GAL4 binding sites of the reporter plasmid. In the presence of a PPARgamma-active ligand, the activated fusion protein GAL4-humanPPARgammaLBD induces expression of the luciferase reporter gene, which can be detected in the form of a chemiluminescence signal after addition of a luciferase substrate. As a difference from the stably transfected PPARalpha reporter cell line, in the cellular PPARgamma assay the two components (luciferase reporter plasmid and PPARgamma expression plasmid) are transiently transfected into HEK cells because stable and permanent expression of the PPARgamma fusion protein is cytotoxic.
The luciferase reporter plasmid pGL3basic-5xGAL4-TK is based on the vector pGL3basic from Promega. The reporter plasmid is prepared by cloning five binding sites of the yeast transcription factor GAL4 (each binding site with the sequence 5′-CTCGGAGGACAGTACTCCG-3′), together with a 160 bp-long thymidine kinase promoter section (Genbank Accession #AF027128) 5′-upstream into pGL3basic. 3′-downstream of the thymidine kinase promoter is the complete luciferase gene from Photinus pyralis (Genbank Accession # Ml 5077), which is already a constituent of the plasmid pGL3basic used. The cloning and sequencing of the reporter plasmid pGL3basic-5xGAL4-TK took place in analogy to the description in Sambrook J. et. al. (Molecular cloning, Cold Spring Harbor Laboratory Press, 1989).
The PPARgamma expression plasmid pcDNA3-GAL4-humanPPARgammaLBD was prepared by first cloning the cDNA coding for amino acids 1-147 of the yeast transcription factor GAL4 (Genbank Accession #P04386) into the plasmid pcDNA3 (from Invitrogen) 3′-downstream of the cytomegalovirus promoter. Subsequently, the cDNA of the ligand-binding domain (LBD) of the human PPARgamma receptor (amino acids […]; Accession #g1480099) 3′-downstream of the GAL4 DNA binding domain was cloned. Cloning and sequencing of the PPARgamma expression plasmid pcDNA3-GAL4-humanPPARgammaLBD again took place in analogy to the description in Sambrook J. et. al. (Molecular cloning, Cold Spring Harbor Laboratory Press, 1989). Besides the luciferase reporter plasmid pGL3basic-5xGAL4-TK and the PPARgamma expression plasmid pcDNA3-GAL4-humanPPARgammaLBD, also used for the cellular PPARgamma assay are the reference plasmid pRL-CMV (from Promega) and the plasmid pBluescript SK(+) from Stratagene. All four plasmids were prepared using a plasmid preparation kit from Qiagen, which ensured a plasmid quality with a minimal endotoxin content, before transfection into HEK cells.
The activity of PPARgamma agonists is determined in a 4-day assay which is described below. Before the transfection, HEK cells were cultivated in DMEM medium (#41965-039, Invitrogen) which was mixed with the following additions: 10% FCS (#16000-044, Invitrogen),1% penicillin-streptomycin solution (#15140-122, Invitrogen) and 2 mM L-glutamine (#25030-024, Invitrogen).
Solution A, a transfection mixture which contains all four plasmids previously described in addition to DMEM medium, was prepared. […]

Compound	EC50 (human PPARalpha) [nM]	EC50 (human PPARgamma) [nM]
2-{(1R,3S)-3-[5-Isopropyl-2-(3-methoxyphenyl)oxazol-4-ylmethoxymethyl]cyclohexylmethoxy}-2-methylpropionic acid [Example 15]	71.7	150
Cc1oc(-c2ccc(C(C)C)cc2)nc1COCC1CCCC(COC(C)(C)C(=O)O)C1 (centres unmarked) [**]	1.3	> 10000
Cc1oc(-c2ccccc2)nc1COCC1CCCC(COC(C)(C)C(=O)O)C1 (centres unmarked) [*]	75	2590
CCc1oc(-c2ccc(C(F)(F)F)cc2)nc1COC[C@@H]1CCC[C@H](COC(C)(C)C(=O)O)C1 [Example 1, 2-{(1S,3R)-3-[5-Ethyl-2-(4-trifluoromethylphenyl)oxazol-4-ylmethoxymethyl]cyclohexylmethoxy}-2-methylpropionic acid]	3.6	1560
CCc1oc(-c2cccc(C(F)(F)F)c2)nc1COC[C@@H]1CCC[C@H](COC(C)(C)C(=O)O)C1 [Example 2, 2-{(1S,3R)-3-[5-Ethyl-2-(3-trifluoromethylphenyl)-oxazol-4-ylmethoxymethyl]cyclohexylmethoxy}-2-methylpropionic acid]	32	232
CCc1oc(-c2ccccc2C(F)(F)F)nc1COC[C@@H]1CCC[C@H](COC(C)(C)C(=O)O)C1 [Example 3, 2-{(1S,3R)-3-[5-Ethyl-2-(2-trifluoromethylphenyl)-oxazol-4-ylmethoxymethyl]cyclohexylmethoxyl}-2-methylpropionic acid]	152	2760
CCc1oc(-c2ccc(C)c(C)c2)nc1COC[C@@H]1CCC[C@H](COC(C)(C)C(=O)O)C1 [Example 4, 2-{(1S,3R)-3-[2-(3,4-Dimethylphenyl)-5-ethyloxazol-4-ylmethoxymethyl]cyclohexylmethoxy}-2-methylpropionic acid]	1.9	324
CCc1oc(-c2ccc(C(C)(C)C)cc2)nc1COC[C@@H]1CCC[C@H](COC(C)(C)C(=O)O)C1 [Example 5, 2-{1(1S,3R)-3-[2-(4-tert-butylphenyl)-5-ethyloxazol-4-ylmethoxymethyl]cyclohexylmethoxy}-2-methylpropionic acid]	14.3	266
CC(C)c1oc(-c2ccc(C(F)(F)F)cc2)nc1COC[C@@H]1CCC[C@H](COC(C)(C)C(=O)O)C1 [Example 6, 2-{(1S,3R)-3-[5-Isopropyl-2-(4-trifluoromethylphenyl)oxazol-4-ylmethoxymethyl]cyclohexylmethoxy}-2-methylpropionic acid]	19.3	1880
CC(C)c1oc(-c2cccc(C(F)(F)F)c2)nc1COC[C@@H]1CCC[C@H](COC(C)(C)C(=O)O)C1 [Example 7, 2-{(1S,3R)-3-[5-Isopropyl-2-(3-trifluoromethylphenyl)oxazol-4-ylmethoxymethyl]cyclohexylmethoxyl}-2-methylpropionic acid]	46.2	800
Cc1ccc(-c2nc(COC[C@@H]3CCC[C@H](COC(C)(C)C(=O)O)C3)c(C(C)C)o2)cc1C [Example 8, 2-{(1S,3R)-3-[2-(3,4-Dimethylphenyl)-5-isopropyloxazol-4-ylmethoxymethyl]cyclohexylmethoxy}-2-methylpropionic acid]	37.5	1500
CC(C)c1oc(-c2ccc(C(C)(C)C)cc2)nc1COC[C@@H]1CCC[C@H](COC(C)(C)C(=O)O)C1 [Example 9, 2-{(1S,3R)-3-[2-(4-tert-butylphenyl)-5-isopropyloxazol-4-ylmethoxymethyl]cyclohexylmethoxy}-2-methylpropionic acid]	48.8	492
COc1cccc(-c2nc(COC[C@@H]3CCC[C@H](COC(C)(C)C(=O)O)C3)c(C(C)C)o2)c1 [Example 10, 2-{1(1S,3R)-3-[5-Isopropyl-2-(3-methoxyphenyl)oxazol-4-ylmethoxymethyl]cyclohexylmethoxy}-2-methylpropionic acid]	381	672
